Tests used:
human mGluR5a receptor = molecular target: T1, human mGluR5a receptor (Homo sapiens, UniProt P41594); experiment: Functional Assay 2: Ca2+ mobilization, HEK cells with human mGluR5a receptor (H10H cell line); type: cell-based; settings: H10H cell line; for EC50: glutamate EC20; for Emax: HEK293, maximum average response at a single concentration, relative to glutamate ECMax
T1 construct: host or cells: HEK293A (monoclones H10H and H12H)
Method: Human mGluR5a cDNA in pCMV6-XL6 mammalian expression plasmid was purchased from OriGene Technologies, Inc. (catalogue number SC326357) and subcloned into pcDNA3.1(−). […] Monoclones were named for the species (“H” for human) plus the location on the plate (e.g. “10H”).
The following day, the growth medium was removed and the cells were washed with assay buffer containing 1× Hank's balanced salt solution (Invitrogen, Carlsbad, Calif.), 20 mM HEPES, 2.5 mM probenecid, pH 7.4 and left with 20 μL of this reagent. Following this step, the cells were loaded with calcium indicator dye, fluo-4 AM, to a final concentration of 2 μM and incubated for 40-45 min at 37° C. The dye solution was removed and replaced with assay buffer. Cell plates were held for 10-15 min at room temperature and were then loaded into the Functional Drug Screening System 6000 (FDSS 6000, Hamamatsu, Japan).
After establishment of a fluorescence baseline for about 3 seconds, the compounds of the present invention were added to the cells, and the response in cells was measured. 2.3 minutes later an EC20 concentration of the mGluR5 receptor agonist glutamate was added to the cells, and the response of the cells was measured for about 1.7 minutes. All test compounds were dissolved and diluted to a concentration of 10 mM in 100% DMSO and then serially diluted into assay buffer for a 2× stock solution in 0.6% DMSO; stock compounds were then added to the assay for a final DMSO concentration of 0.3% after the first addition to the assay well. Calcium fluorescence measures were recorded as fold over basal fluorescence; raw data was then normalized to the maximal response to glutamate.
The concentration-response curves of compounds of the present invention, obtained in the presence of EC20 of mGluR5 receptor agonist glutamate to determine positive allosteric modulation, were generated using Microsoft Excel with IDBS XLfit add-ins. The raw data file containing all time points was used as the data source in the analysis template. This was saved by the FDSS as a tab-delimitted text file. Data were normalized using a static ratio function (F/F0) for each measurement of the total 350 values per well divided by each well's initial value. […] This is sufficient time to capture the peak amplitude of the cellular calcium response. […] Each of the three values collected at each concentration of test compound were weighted evenly. […] These two methods are in good agreement for curves with a clear plateau at the high concentration range.

human mGluR5 receptor = molecular target: T2, human mGluR5 receptor (Homo sapiens, UniProt P41594); experiment: Functional Assay 1: intracellular Ca2+ mobilization, positive allosteric modulation of glutamate EC20 response; type: cell-based; settings: for EC50: human mGluR5 over-expressing HEK-293 cells, glutamate EC20 (~0.2 μM), updated value; for Emax: maximum % effect relative to glutamate ECMax
T2 construct: expressed in transfected cells; host or cells: HEK-293
T2 sequence (P41594 21-1180 isoform P41594-2 limits assumed): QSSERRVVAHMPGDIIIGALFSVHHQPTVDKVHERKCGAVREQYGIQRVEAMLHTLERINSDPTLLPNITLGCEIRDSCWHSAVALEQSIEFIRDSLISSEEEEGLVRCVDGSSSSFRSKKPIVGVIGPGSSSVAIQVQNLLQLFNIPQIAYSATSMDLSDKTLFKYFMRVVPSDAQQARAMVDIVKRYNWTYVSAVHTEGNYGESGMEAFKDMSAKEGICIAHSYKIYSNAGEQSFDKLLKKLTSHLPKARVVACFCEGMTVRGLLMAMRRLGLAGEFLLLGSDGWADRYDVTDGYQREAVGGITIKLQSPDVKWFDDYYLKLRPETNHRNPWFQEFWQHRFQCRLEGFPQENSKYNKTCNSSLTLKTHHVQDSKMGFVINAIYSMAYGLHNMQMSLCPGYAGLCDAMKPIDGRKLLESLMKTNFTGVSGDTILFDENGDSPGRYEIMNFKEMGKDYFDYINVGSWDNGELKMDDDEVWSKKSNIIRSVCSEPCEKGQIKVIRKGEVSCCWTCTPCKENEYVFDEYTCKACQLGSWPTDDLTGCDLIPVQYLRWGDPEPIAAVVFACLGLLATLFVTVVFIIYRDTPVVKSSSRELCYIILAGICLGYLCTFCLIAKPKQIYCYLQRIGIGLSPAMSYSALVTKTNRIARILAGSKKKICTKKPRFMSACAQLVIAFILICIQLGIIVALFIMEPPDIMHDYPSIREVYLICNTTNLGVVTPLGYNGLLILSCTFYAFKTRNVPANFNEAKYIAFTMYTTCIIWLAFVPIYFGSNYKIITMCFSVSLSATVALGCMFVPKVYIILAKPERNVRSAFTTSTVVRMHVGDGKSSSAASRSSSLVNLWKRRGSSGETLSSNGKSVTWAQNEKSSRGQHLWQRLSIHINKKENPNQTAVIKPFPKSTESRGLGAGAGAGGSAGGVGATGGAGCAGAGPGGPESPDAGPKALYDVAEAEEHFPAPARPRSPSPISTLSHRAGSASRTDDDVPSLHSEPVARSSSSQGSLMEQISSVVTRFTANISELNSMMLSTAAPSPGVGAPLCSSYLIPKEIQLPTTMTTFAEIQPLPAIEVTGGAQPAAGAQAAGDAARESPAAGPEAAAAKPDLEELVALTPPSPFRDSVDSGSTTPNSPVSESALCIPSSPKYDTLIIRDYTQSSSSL
Method: HEK-293 cells were stable transfected with human mGluR5a cDNA in expression vector pcDNA4/TO. For Assay 1, these human mGluR5 receptor over-expressing HEK-293 cells were grown at a density of 40,000 cells/well in PDL-coated 384-well plates. The following day, cells were preloaded with the calcium-sensing dye Fluo-4 AM and various concentrations of test compound were added in the absence of exogenous glutamate to test for direct agonist activity. Shortly (2.5 min) thereafter, an EC20 equivalent of glutamate (˜0.2 μM) was added. The fluorescence signal was monitored using a Hamamatsu Functional Drug Screening System (FDSS) fluorescence plate reader following the addition of compound alone (direct agonist response) and then the further addition of an EC20 of glutamate (positive allosteric modulation response). The pEC50 was defined as the negative log of the test compound concentration which produced an increase in the glutamate EC20-mediated response that was 50% of maximum. Individual amplitudes were expressed as % effect by multiplying each amplitude by 100 and then dividing the product by the mean of the amplitudes derived from the glutamate ECMax-treated wells. Emax values reported in this application are defined as the maximum % effect obtained in a concentration-response curve.

T1 sequence (P41594 21-1180 isoform P41594-2 limits assumed): as above

Row | Compound | EC50 (human mGluR5a receptor) [nM] | Emax (human mGluR5a receptor) [%] | melting point [°C] | EC50 (human mGluR5 receptor) [nM] | Emax (human mGluR5 receptor) [%]
1 | N#Cc1cccc(COc2nc3c(s2)C(=O)N(c2ccc(F)cc2F)CC3)c1 [Compound 20, 3-[[[5-(2,4-difluorophenyl)-4,5,6,7-tetrahydro-4-oxothiazolo[5,4-c]pyridin-2-yl]oxy]methyl]-benzonitrile] | 158 | 25 | 112.9 | – | –
2 | Cc1cccc(COc2nc3c(s2)C(=O)N(c2ccc(F)cc2F)CC3)c1 [Compound 21, 5-(2,4-difluorophenyl)-6,7-dihydro-2-[(3-methylphenyl)methoxy]-thiazolo[5,4-c]pyridin-4(5H)-one] | 331 | 54 | 95.2 to 97.2 | – | –
3 | O=C1c2sc(OCc3ccccc3F)nc2CCN1c1ccc(F)cc1 [Compound 22, 5-(4-fluorophenyl)-2-[(2-fluorophenyl)methoxy]-6,7-dihydro-thiazolo[5,4-c]pyridin-4(5H)-one] | 372 | 45 | 91 to 92.5 | – | –
4 | O=C1c2sc(OCc3ccc(F)cc3F)nc2CCN1c1ccc(F)cc1F [Compound 23, 5-(2,4-difluorophenyl)-2-[(2,4-difluorophenyl)methoxy]-6,7-dihydro-thiazolo[5,4-c]pyridin-4(5H)-one] | – | – | 104.3 to 107.2 | 955 | 54
5 | O=C1c2sc(COc3cccc(F)c3)nc2CCN1c1ccc(F)cc1 [Compound 25, 2-[(3-fluorophenoxy)methyl]-5-(4-fluorophenyl)-6,7-dihydro-thiazolo[5,4-c]pyridin-4(5H)-one] | 174 | 63 | 152.8 | – | –
6 | O=C1c2sc(OCc3cccc(F)c3)nc2CCN1c1ccc(C(F)(F)F)cc1 [Compound 26, 2-[(3-fluorophenyl)methoxy]-6,7-dihydro-5-[4-(trifluoromethyl)phenyl]-thiazolo[5,4-c]pyridin-4(5H)-one] | – | – | 130 to 131.5 | 214 | 46
7 | O=C1c2sc(COc3ccccc3)nc2CCN1c1ccc(F)cc1F [Compound 29, 5-(2,4-difluorophenyl)-6,7-dihydro-2-(phenoxymethyl)-thiazolo[5,4-c]pyridin-4(5H)-one] | 97.7 | 81 | 268.9 to 284.1 | – | –
8 | O=C1c2sc(COc3ccccc3F)nc2CCN1c1ccc(F)cc1 [Compound 31, 2-[(2-fluorophenoxy)methyl]-5-(4-fluorophenyl)-6,7-dihydro-thiazolo[5,4-c]pyridin-4(5H)-one] | 282 | 71 | > 280 | – | –
9 | O=C1c2sc(COc3ccc(F)cc3)nc2CCN1c1ccc(F)cc1F [Compound 32, 5-(2,4-difluorophenyl)-2-[(4-fluorophenoxy)methyl]-6,7-dihydro-thiazolo[5,4-c]pyridin-4(5H)-one] | 224 | 81 | > 280 | – | –
10 | C[C@@H](N1CCc2nc(COc3ccccc3F)sc2C1=O)C(C)(C)C [Compound 33, 2-[(2-fluorophenoxy)methyl]-6,7-dihydro-5-[(1R)-1,2,2-trimethylpropyl]-thiazolo[5,4-c]pyridin-4(5H)-one] | > 30200 | 38 | 98.4 to 99.6 | – | –
11 | COc1ccccc1N1CCc2nc(COc3cccc(F)c3)sc2C1=O [Compound 37, 2-[(3-fluorophenoxy)methyl]-6,7-dihydro-5-(2-methoxyphenyl)-thiazolo[5,4-c]pyridin-4(5H)-one] | 871 | 83 | 61.2 to 64.2 | – | –
12 | CN1CCCc2nc(COc3ccccc3)sc2C1=O [Compound 38, 5,6,7,8-tetrahydro-5-methyl-2-(phenoxymethyl)-4H-thiazolo[5,4-c]azepin-4-one] | 1070 | 70 | 105.9 | – | –
13 | O=C1c2sc(COc3ccccc3)nc2CCN1CC1CC1 [Compound 39, 5-(cyclopropylmethyl)-6,7-dihydro-2-(phenoxymethyl)-thiazolo[5,4-c]pyridin-4(5H)-one] | 209 | – | 292.6 to 302.9 | – | –
14 | O=C1c2sc(COc3cccc(F)c3)nc2CCN1C1CC1 [Compound 40, 5-cyclopropyl-2-[(3-fluorophenoxy)methyl]-6,7-dihydro-thiazolo[5,4-c]pyridin-4(5H)-one] | 1550 | 39 | 243.9 to 245.7 | – | –
15 | O=C1c2sc(COc3cccc(F)c3)nc2CCN1CC1CC1 [Compound 41, 5-(cyclopropylmethyl)-2-[(3-fluorophenoxy)methyl]-6,7-dihydro-thiazolo[5,4-c]pyridin-4(5H)-one] | 224 | 66 | 275.4 to 277.8 | – | –
16 | O=C1c2sc(COc3ccccc3F)nc2CCN1CC1CC1 [Compound 42, 5-(cyclopropylmethyl)-2-[(2-fluorophenoxy)methyl]-6,7-dihydro-thiazolo[5,4-c]pyridin-4(5H)-one] | 1100 | 67 | 85.3 to 87.1 | – | –
17 | O=C1c2sc(COc3ccc(F)cc3)nc2CCN1CC1CC1 [Compound 43, 5-(cyclopropylmethyl)-2-[(4-fluorophenoxy)methyl]-6,7-dihydro-thiazolo[5,4-c]pyridin-4(5H)-one] | 759 | 59 | 254 to 259.1 | – | –
18 | O=C1c2sc(COc3ccccc3)nc2CCN1C1CC1 [Compound 44, 5-cyclopropyl-6,7-dihydro-2-(phenoxymethyl)-thiazolo[5,4-c]pyridin-4(5H)-one] | 4370 | 36 | 252.1 to 255.3 | – | –
19 | Cc1cccc(N2CCc3nc(COc4ccccc4)sc3C2=O)n1 [Compound 46, 6,7-dihydro-5-(6-methyl-2-pyridinyl)-2-(phenoxymethyl)-thiazolo[5,4-c]pyridin-4(5H)-one] | 550 | 84 | 155.5 | – | –
20 | O=C1c2sc(COc3ccc(F)cc3)nc2CCN1c1ccc(F)cn1 [Compound 53, 2-[(4-fluorophenoxy)methyl]-5-(5-fluoro-2-pyridinyl)-6,7-dihydro-thiazolo[5,4-c]pyridin-4(5H)-one] | 295 | 56 | 185.8 to 186.8 | – | –
21 | O=C1c2sc(COc3cccc(F)c3)nc2CCN1c1ccc(F)cn1 [Compound 54, 2-[(3-fluorophenoxy)methyl]-5-(5-fluoro-2-pyridinyl)-6,7-dihydro-thiazolo[5,4-c]pyridin-4(5H)-one] | 288 | 79 | 125.8 to 126.4 | – | –
22 | O=C1c2sc(COc3ccccc3F)nc2CCN1c1ccc(F)cn1 [Compound 55, 2-[(2-fluorophenoxy)methyl]-5-(5-fluoro-2-pyridinyl)-6,7-dihydro-thiazolo[5,4-c]pyridin-4(5H)-one] | 550 | 63 | 151.8 to 153 | – | –
23 | O=C1c2sc(COc3ccccc3)nc2CCN1c1cncc(F)c1 [Compound 57, 5-(5-fluoro-3-pyridinyl)-6,7-dihydro-2-(phenoxymethyl)-thiazolo[5,4-c]pyridin-4(5H)-one] | 1700 | 62 | 167.6 | – | –
24 | O=C1c2sc(COc3ccccc3F)nc2CCN1c1ccc(F)cc1F [Compound 59, 5-(2,4-difluorophenyl)-2-[(2-fluorophenoxy)methyl]-6,7-dihydro-thiazolo[5,4-c]pyridin-4(5H)-one] | 195 | 76 | 100.1 to 105.2 | – | –
25 | O=C1c2sc(COc3ccccc3F)nc2CCN1C1CC1 [Compound 61, 5-cyclopropyl-2-[(2-fluorophenoxy)methyl]-6,7-dihydro-thiazolo[5,4-c]pyridin-4(5H)-one] | > 30200 | 27 | 235.8 to 240.2 | – | –
26 | O=C1c2sc(COc3ccc(F)cc3)nc2CCN1C1CC1 [Compound 62, 5-cyclopropyl-2-[(4-fluorophenoxy)methyl]-6,7-dihydro-thiazolo[5,4-c]pyridin-4(5H)-one] | > 10000 | 51 | 126.3 to 130.8 | – | –
27 | O=C1c2sc(OCc3cc(F)cc(F)c3)nc2CCN1c1ccc(F)cc1F [Compound 73, 5-(2,4-difluorophenyl)-2-[(3,5-difluorophenyl)methoxy]-6,7-dihydro-thiazolo[5,4-c]pyridin-4(5H)-one] | > 30200 | 16 | 127 to 130.5 | – | –
